# How the values were obtained:
# Experiment in all cases: In vitro susceptibility, broth microdilution (MIC)
# [1] = tested on: VRE#2 (2010A); assay type: cell-based, vancomycin resistant Enterococci; conditions: VRE#2 (2010A); read-out: Antimicrobial activity (MIC) VRE#2
# In short: (§1)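 MIC determined by CLSI 2-fold broth microdilution in cation-adjusted Mueller–Hinton broth at ~2.5×10^5 CFU/ml, final compound 0.031–64 μg/ml, 18–24 h at 37 °C. MIC is the lowest concentration giving complete growth inhibition by background-corrected OD600 versus compound-free wells; duplicate or triplicate wells, replicated at least twice.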
# [2] = tested on: S. aureus (ATCC29213); assay type: cell-based; conditions: Staphylococcus aureus; S. aureus ATCC29213; 18-24 h, 37 C; read-out: Antimicrobial activity (MIC) S. aureus ATCC29213
# In short: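 CLSI 2-fold serial broth microdilution; K. pneumoniae C238 grown in L-broth, S. aureus ATCC 29213 in Mueller Hinton broth, plates incubated 18–24 h at 37 °C. MIC taken as lowest concentration giving complete growth inhibition by OD600 versus compound-free wells, background-subtracted.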
# [3] = tested on: A. baumannii (ATCC 19606); assay type: cell-based; conditions: Acinetobacter baumannii, ATCC19606; A. baumannii ATCC 19606 (values without asterisk); read-out: Antimicrobial activity (MIC) A. baumannii
# In short: as §1
# [4] = tested on: S. typhimurium (ATCC BAA-185); assay type: cell-based; conditions: Salmonella enterica, read-out: Antimicrobial activity (MIC) S. typhimurium
# In short: as §1
# [5] = tested on: P. aeruginosa (PA01); assay type: cell-based; conditions: Pseudomonas aeruginosa, read-out: Antimicrobial activity (MIC) P. aeruginosa
# In short: as §1
Compound,MIC [1],MIC [2],MIC [3],MIC [4],MIC [5]
"C[N+](C)(C)CCON=C(c1c(-c2cc3cc(Cl)ccc3[nH]2)[nH]c2cc(Br)ccc12)C(F)(F)F (racemic) [Compound 221, 2-(((1-(6-Bromo-5′-chloro-1H,1′H-[2,2′-biindol]-3-yl)-2,2,2-trifluoroethylidene)amino)oxy)-N,N,N-trimethylethan-1-aminium Iodide]",2 µg/mL,1 µg/mL,32 µg/mL,64 µg/mL,32 µg/mL
"NCCNC(=O)c1c(-c2cc3cc(Cl)ccc3[nH]2)[nH]c2cc(Br)ccc12 [Compound 206, N-(2-Aminoethyl)-6-bromo-5′-chloro-1H,1′H-[2,2′-biindole]-3-carboxamide]",4 µg/mL,8 µg/mL,16 µg/mL,64 µg/mL,32 µg/mL
"CN(C)CCOC(=O)c1c(/C=C/c2ccc(Cl)cc2)[nH]c2cc(Br)ccc12 [Compound 60, (E)-2-(Dimethylamino)ethyl 6-bromo-2-(4-chlorostyryl)-1H-indole-3-carboxylate]",–,4 µg/mL,> 64 µg/mL,–,–
"NCCOc1cc2[nH]c(-c3cc4ccc(Br)cc4[nH]3)cc2cc1Cl [Compound 201, 2-((6′-Bromo-5-chloro-1H,1′H-[2,2′-biindol]-6-yl)oxy)ethan-1-amine]",4 µg/mL,4 µg/mL,16 µg/mL,16 µg/mL,16 µg/mL
